The compounds below were run against T1, Neuronal acetylcholine receptor; alpha3/beta4 (Homo sapiens, UniProt P30926+P32297) (assay: Effect on alpha3-beta4 neuronal nicotinic acetylcholine receptor-stimulated adrenal catecholamine secretion).
Type: functional

T1 sequence (P30926 whole entry): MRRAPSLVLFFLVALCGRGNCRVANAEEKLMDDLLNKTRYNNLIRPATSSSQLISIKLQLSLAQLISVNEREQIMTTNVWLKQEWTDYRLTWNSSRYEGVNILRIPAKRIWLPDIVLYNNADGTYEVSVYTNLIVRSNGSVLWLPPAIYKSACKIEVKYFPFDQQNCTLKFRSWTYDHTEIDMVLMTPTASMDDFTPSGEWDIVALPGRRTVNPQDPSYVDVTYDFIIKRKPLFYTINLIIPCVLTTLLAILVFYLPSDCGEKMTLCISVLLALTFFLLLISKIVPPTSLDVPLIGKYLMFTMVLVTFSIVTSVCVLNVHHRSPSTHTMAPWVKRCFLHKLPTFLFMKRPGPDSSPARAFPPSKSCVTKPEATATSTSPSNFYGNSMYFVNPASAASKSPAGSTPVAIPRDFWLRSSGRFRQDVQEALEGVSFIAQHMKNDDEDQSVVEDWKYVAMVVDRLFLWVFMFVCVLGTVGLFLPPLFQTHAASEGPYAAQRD
T1 sequence (P32297 whole entry): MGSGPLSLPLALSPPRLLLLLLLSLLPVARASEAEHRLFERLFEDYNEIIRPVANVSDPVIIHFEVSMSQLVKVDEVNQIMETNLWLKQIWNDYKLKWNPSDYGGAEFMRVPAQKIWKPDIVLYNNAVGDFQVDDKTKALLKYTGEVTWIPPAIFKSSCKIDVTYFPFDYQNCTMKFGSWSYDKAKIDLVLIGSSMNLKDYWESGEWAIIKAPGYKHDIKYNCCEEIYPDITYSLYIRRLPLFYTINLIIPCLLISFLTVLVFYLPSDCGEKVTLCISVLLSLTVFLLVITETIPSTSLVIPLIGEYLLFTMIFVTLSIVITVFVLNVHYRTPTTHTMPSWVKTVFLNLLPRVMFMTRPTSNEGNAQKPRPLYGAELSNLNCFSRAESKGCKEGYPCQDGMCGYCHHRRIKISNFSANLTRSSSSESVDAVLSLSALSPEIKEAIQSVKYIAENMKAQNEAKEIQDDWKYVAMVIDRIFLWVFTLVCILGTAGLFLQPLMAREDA

First: O=C(OCC1CCCN(CCCc2ccccc2)C1)c1ccccc1C(F)(F)F (centres undefined)
Second: O=C(OCC1CCCN(CCCc2ccccc2)C1)c1ccccc1F (centres undefined)
The IC50 of the first is 1.6-fold lower: 3200 nM for the first, 5200 nM for the second.

`CCCCCCCCC1CC(=O)N(c2ccccc2C(=O)OCC2CCCN(CCCc3ccccc3)C2)C1=O` (centres undefined) and `CCCCC1CC(=O)N(c2ccccc2C(=O)OCC2CCCN(CCCc3ccccc3)C2)C1=O` (centres undefined) are within 1.5-fold of each other in IC50: 1300 nM for the first, 1500 nM for the second.

Going from `O=C(OCC1CCCN(CCCc2ccccc2)C1)c1ccccc1N1C(=O)CC(Cc2ccccc2)C1=O` (centres undefined) to `CCC1CC(=O)N(c2ccccc2C(=O)OCC2CCCN(CCCc3ccccc3)C2)C1=O` (centres undefined), the IC50 rises from 1300 nM to 4500 nM (3.5-fold).

First: CC1CC(=O)N(c2ccccc2C(=O)OCC2CCCN(CCc3ccccc3)C2)C1=O (centres undefined)
Second: CC(C)C1CC(=O)N(c2ccccc2C(=O)OCC2CCCN(CCCc3ccccc3)C2)C1=O (centres undefined)
The IC50 of the first is 4.6-fold higher: 11400 nM for the first, 2500 nM for the second. The second is the more potent here.

Compared with `O=C(OCC1CCCN(CCCc2ccccc2)C1)c1ccccc1-c1ccccc1` (centres undefined), `O=C(OCC1CCCN(CCCc2ccccc2)C1)c1ccc(-c2ccccc2)cc1` (centres undefined) is 1.8-fold higher in IC50: 1700 nM for the first, 3000 nM for the second. The first is the more potent here.

Going from `C=CCC1CC(=O)N(c2ccccc2C(=O)OCC2CCCN(CCCc3ccccc3)C2)C1=O` (centres undefined) to `CC1(C)CC(=O)N(c2ccccc2C(=O)OCC2CCCN(CCCc3ccccc3)C2)C1=O` (centres undefined), the IC50 rises from 1700 nM to 7500 nM (4.4-fold). The first is the more potent here.

First: CC(=O)Nc1ccccc1C(=O)OCC1CCCN(CCCc2ccccc2)C1 (centres undefined)
Second: COc1ccccc1C(=O)OCC1CCCN(CCCc2ccccc2)C1 (centres undefined)
The IC50 of the first is 2.6-fold higher: 8400 nM for the first, 3200 nM for the second.

First: O=C(OCC1CCCN(CCCc2ccccc2)C1)c1ccccc1N1C(=O)c2ccccc2C1=O (centres undefined)
Second: CC1C(=O)N(c2ccccc2C(=O)OCC2CCCN(CCCc3ccccc3)C2)C(=O)C1C (centres undefined)
The IC50 of the first is 4.6-fold lower: 1300 nM for the first, 6000 nM for the second. The first is the more potent here.

Going from `CCN1C[C@]2(COC(=O)c3ccccc3N3C(=O)C[C@H](C)C3=O)CC[C@H](OC)[C@@]34[C@@H]5C[C@H]6[C@H](OC)[C@@H]5[C@](O)(C[C@@H]6OC)[C@](O)([C@@H](OC)[C@H]23)[C@@H]14` [METHYLLYCACONITINE] to `O=C(OCC1CCCN(CCCc2ccccc2)C1)c1ccccc1N1C(=O)CC(C2CCCC2)C1=O` (centres undefined), the IC50 falls from 2600 nM to 1200 nM (2.2-fold).

Each compound was assayed against Neuronal acetylcholine receptor subunit alpha-3 (Homo sapiens, UniProt P32297) (assay: Inhibitory activity on nicotinic acetylcholine receptor alpha3).
Sequence of Neuronal acetylcholine receptor subunit alpha-3 (P32297 whole entry): as above

`CC1CC(=O)N(c2ccccc2C(=O)OCC2CCCN(C(C)C)C2)C1=O` (centres undefined) and `CC(C)N1CCCC(COC(=O)c2ccccc2N2C(=O)CCC2=O)C1` (centres undefined) are the same in IC50: about 20000 nM for the first, about 20000 nM for the second.

What follows are compounds tested against T1, Neuronal acetylcholine receptor; alpha3/beta4 (assay: Inhibitory activity against nicotinic acetylcholine receptor alpha3-beta4).
Type: protein-complex assay

`C[N+](C)(C)CCCCCCCCCC[N+](C)(C)C` [DECAMETHONIUM] and `C[N+](C)(C)CCCCCC[N+](C)(C)C` [HEXAMETHONIUM HYDROXIDE] are the same in IC50: about 1700 nM for the first, about 1700 nM for the second.

Compound `COc1cc2c3cc1Oc1cc(ccc1O)C[C@@H]1c4c(cc(OC)c(O)c4Oc4ccc(cc4)C[C@@H]3N(C)CC2)CC[N+]1(C)C` has an IC50 of 2000 nM.

These compounds were tested against Neuronal acetylcholine receptor subunit alpha-7 (Homo sapiens, UniProt P36544) (assay: Affinity for nicotinic acetylcholine receptor alpha7).
Sequence of Neuronal acetylcholine receptor subunit alpha-7 (P36544 whole entry): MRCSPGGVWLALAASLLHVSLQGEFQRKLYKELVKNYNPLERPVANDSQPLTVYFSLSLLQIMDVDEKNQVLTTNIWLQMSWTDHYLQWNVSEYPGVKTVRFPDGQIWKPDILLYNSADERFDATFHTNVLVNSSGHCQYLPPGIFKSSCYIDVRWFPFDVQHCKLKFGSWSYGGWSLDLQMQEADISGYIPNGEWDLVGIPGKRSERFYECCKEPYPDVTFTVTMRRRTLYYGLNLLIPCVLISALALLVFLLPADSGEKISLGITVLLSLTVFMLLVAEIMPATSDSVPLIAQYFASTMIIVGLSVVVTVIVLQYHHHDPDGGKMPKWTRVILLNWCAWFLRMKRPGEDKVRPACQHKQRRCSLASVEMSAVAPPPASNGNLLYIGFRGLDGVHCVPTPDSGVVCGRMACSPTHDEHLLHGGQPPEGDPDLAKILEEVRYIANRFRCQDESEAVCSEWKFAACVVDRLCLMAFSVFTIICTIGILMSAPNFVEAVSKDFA

`CC1CC(=O)N(c2ccccc2C(=O)OCC2CCCN(CCc3ccccc3)C2)C1=O` (centres undefined) showed an IC50 of 177000 nM.

Source: ChEMBL document CHEMBL1146803, “Structure activity studies of ring E analogues of methyllycaconitine. Part 2: Synthesis of antagonists to the alpha3beta4* nicotinic acetylcholine receptors through modifications to the ester” (Bioorg Med Chem Lett, 2004)
